Laboratory results published in patent publication US20150005281A1, “PYRIMIDINE-2,4-DIAMINE DERIVATIVES AS KINASE INHIBITORS” (Cellzome Limited, priority 2011, published 2015).

Assays:
Type in all cases: binding
JAK1 = target: T1, JAK1 (Homo sapiens, UniProt P23458); test: Kinobeads assay with immunodetection, JAK1; details: for IC50: Kinobeads assay, mixed Molt4/Ramos lysate, read-out: Inhibition values (IC50) JAK1
T1 construct: endogenous in cells; host or cells: Molt4 (ATCC CRL-1582) and Ramos (ATCC CRL-1596) cells; mixed lysate 1:2
Protocol: (§1) Determination of the Effect of the Compounds According to the Invention on Janus Kinases (JAK Family) in Kinobeads™ Assays with Immunodetection of Kinases
(§2) The compounds of the present invention as described in the previous examples were tested in a Kinobeads™ assay as described for ZAP-70 (WO-A 2007/137867). Briefly, test compounds (at various concentrations) and the affinity matrix with the immobilized aminopyrido-pyrimidine ligand 24 were added to cell lysate aliquots and allowed to bind to the proteins in the lysate sample. After the incubation time the beads with captured proteins were separated from the lysate. Bound proteins were then eluted and the presence of JAK1, JAK2, JAK3 and TYK2 was detected and quantified using specific antibodies in a dot blot procedure and the Odyssey infrared detection system. Dose response curves for individual kinases were generated and IC50 values calculated. Kinobeads™ assays for ZAP-70 (WO-A 2007/137867) and for kinase selectivity profiling (WO-A 2006/134056) have been previously described.
(§3) The affinity matrix was washed two times with 15 mL of 1×DP buffer containing 0.2% NP40 (IGEPAL® CA-630, Sigma, #13021) and then resuspended in 1×DP buffer containing 0.2% NP40 (3% beads slurry).
(§4) 5×DP buffer: 250 mM Tris-HCl pH 7.4, 25% Glycerol, 7.5 mM MgCl2, 750 mM NaCl, 5 mM Na3VO4; filter the 5×DP buffer through a 0.22 μm filter and store in aliquots at −80° C. The 5×DP buffer is diluted with H2O to 1×DP buffer containing 1 mM DTT and 25 mM NaF.
(§5) Stock solutions of test compounds were prepared in DMSO. In a 96 well plate 30 μL solution of diluted test compounds at 5 mM in DMSO were prepared. Starting with this solution a 1:3 dilution series (9 steps) was prepared. For control experiments (no test compound) a buffer containing 2% DMSO was used.
(§6) Molt4 cells (ATCC catalogue number CRL-1582) and Ramos cells (ATCC catalogue number CRL-1596) were grown in 1 L Spinner flasks (Integra Biosciences, #182101) in suspension in RPMI 1640 medium (Invitrogen, #21875-034) supplemented with 10% Fetal Bovine Serum (Invitrogen) at a density between 0.15×10^6 and 1.2×10^6 cells/mL. Cells were harvested by centrifugation, washed once with 1×PBS buffer (Invitrogen, #14190-094) and cell pellets were frozen in liquid nitrogen and subsequently stored at −80° C. Cells were homogenized in a Potter S homogenizer in lysis buffer: 50 mM Tris-HCl, 0.8% NP40, 5% glycerol, 150 mM NaCl, 1.5 mM MgCl2, 25 mM NaF, 1 mM sodium vanadate, 1 mM DTT, pH 7.5. One complete EDTA-free tablet (protease inhibitor cocktail, Roche Diagnostics, 1873580) per 25 ml, buffer was added. The material was dounced 10 times using a mechanized POTTER S, transferred to 50 mL falcon tubes, incubated for 30 minutes on ice and spun down for 10 minutes at 20,000 g at 4° C. (10,000 rpm in Sorvall SLA600, precooled). The supernatant was transferred to an ultracentrifuge (UZ)-polycarbonate tube (Beckmann, 355654) and spun for 1 hour at 100.000 g at 4° C. (33.500 rpm in Ti50.2, precooled). The supernatant was transferred again to a fresh 50 mL falcon tube, the protein concentration was determined by a Bradford assay (BioRad) and samples containing 50 mg of protein per aliquot were prepared. The samples were immediately used for experiments or frozen in liquid nitrogen and stored frozen at −80° C.
(§7) Cell lysate (approximately 50 mg protein per plate) was thawed in a water bath at room temperature and then stored on ice. To the thawed cell lysate 1×DP 0.8% NP40 buffer containing protease inhibitors (1 tablet for 25 mL buffer; EDTA-free protease inhibitor cocktail; Roche Diagnostics 1873580) was added in order to reach a final protein concentration of 10 mg/mL total protein. The diluted cell lysate was stored on ice. Mixed Molt4/Ramos lysate was prepared by combining one volume of Molt4 lysate and two volumes of Ramos lysate (ratio 1:2). […]

TYK2 = target: T2, TYK2 (Homo sapiens, UniProt P29597); test: Kinobeads assay with immunodetection, TYK2; details: for IC50: Kinobeads assay, mixed Molt4/Ramos lysate, read-out: Inhibition values (IC50) Tyk2
T2 construct: endogenous in cells; host or cells: Molt4 (ATCC CRL-1582) and Ramos (ATCC CRL-1596) cells; mixed lysate 1:2
Protocol: as §1, §2, §3, §4, §5, §6, §7

JAK2 = target: T3, JAK2 (Homo sapiens, UniProt O60674); test: Kinobeads assay with immunodetection, JAK2; details: mixed Molt4/Ramos lysate, read-out: Inhibition values (IC50) JAK2
T3 construct: endogenous in cells; host or cells: Molt4 (ATCC CRL-1582) and Ramos (ATCC CRL-1596) cells; mixed lysate 1:2
Protocol: as §1, §2, §3, §4, §5, §6, §7

JAK3 = target: T4, JAK3 (Homo sapiens, UniProt P52333); test: Kinobeads assay with immunodetection, JAK3; details: for IC50: Kinobeads assay, mixed Molt4/Ramos lysate, read-out: Inhibition values (IC50) JAK3
T4 construct: endogenous in cells; host or cells: Molt4 (ATCC CRL-1582) and Ramos (ATCC CRL-1596) cells; mixed lysate 1:2
T4 sequence (P52333 1-1124): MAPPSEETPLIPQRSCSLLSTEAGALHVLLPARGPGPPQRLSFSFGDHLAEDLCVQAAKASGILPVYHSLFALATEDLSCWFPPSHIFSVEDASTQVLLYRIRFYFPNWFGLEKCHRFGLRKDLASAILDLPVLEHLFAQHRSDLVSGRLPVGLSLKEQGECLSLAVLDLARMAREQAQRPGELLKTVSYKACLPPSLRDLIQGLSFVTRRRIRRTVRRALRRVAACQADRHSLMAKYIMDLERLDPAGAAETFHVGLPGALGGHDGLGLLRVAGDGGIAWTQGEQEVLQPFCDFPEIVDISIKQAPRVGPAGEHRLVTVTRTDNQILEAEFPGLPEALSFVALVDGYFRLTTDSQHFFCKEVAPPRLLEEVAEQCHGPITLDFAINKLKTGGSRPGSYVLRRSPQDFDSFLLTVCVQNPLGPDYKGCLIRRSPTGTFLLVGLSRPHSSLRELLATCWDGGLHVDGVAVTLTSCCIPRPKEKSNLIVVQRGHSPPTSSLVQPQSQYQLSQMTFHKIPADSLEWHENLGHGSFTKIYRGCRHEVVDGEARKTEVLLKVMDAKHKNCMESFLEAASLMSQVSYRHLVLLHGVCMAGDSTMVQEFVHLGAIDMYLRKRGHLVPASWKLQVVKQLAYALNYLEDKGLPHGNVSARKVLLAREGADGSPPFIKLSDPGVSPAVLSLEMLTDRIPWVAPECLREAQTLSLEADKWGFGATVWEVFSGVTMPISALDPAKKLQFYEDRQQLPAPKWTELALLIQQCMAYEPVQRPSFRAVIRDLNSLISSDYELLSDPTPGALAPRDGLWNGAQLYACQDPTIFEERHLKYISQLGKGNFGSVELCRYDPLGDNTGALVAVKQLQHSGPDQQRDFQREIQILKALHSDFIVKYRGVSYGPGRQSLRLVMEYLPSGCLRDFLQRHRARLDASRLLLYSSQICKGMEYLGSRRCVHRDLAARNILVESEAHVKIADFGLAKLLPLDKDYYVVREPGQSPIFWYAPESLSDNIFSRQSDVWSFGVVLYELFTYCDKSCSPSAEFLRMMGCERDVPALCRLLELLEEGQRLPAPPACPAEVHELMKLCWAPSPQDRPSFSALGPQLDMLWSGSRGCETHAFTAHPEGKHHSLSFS
Protocol: as §1, §2, §3, §4, §5, §6, §7

T1 sequence (P23458 whole entry): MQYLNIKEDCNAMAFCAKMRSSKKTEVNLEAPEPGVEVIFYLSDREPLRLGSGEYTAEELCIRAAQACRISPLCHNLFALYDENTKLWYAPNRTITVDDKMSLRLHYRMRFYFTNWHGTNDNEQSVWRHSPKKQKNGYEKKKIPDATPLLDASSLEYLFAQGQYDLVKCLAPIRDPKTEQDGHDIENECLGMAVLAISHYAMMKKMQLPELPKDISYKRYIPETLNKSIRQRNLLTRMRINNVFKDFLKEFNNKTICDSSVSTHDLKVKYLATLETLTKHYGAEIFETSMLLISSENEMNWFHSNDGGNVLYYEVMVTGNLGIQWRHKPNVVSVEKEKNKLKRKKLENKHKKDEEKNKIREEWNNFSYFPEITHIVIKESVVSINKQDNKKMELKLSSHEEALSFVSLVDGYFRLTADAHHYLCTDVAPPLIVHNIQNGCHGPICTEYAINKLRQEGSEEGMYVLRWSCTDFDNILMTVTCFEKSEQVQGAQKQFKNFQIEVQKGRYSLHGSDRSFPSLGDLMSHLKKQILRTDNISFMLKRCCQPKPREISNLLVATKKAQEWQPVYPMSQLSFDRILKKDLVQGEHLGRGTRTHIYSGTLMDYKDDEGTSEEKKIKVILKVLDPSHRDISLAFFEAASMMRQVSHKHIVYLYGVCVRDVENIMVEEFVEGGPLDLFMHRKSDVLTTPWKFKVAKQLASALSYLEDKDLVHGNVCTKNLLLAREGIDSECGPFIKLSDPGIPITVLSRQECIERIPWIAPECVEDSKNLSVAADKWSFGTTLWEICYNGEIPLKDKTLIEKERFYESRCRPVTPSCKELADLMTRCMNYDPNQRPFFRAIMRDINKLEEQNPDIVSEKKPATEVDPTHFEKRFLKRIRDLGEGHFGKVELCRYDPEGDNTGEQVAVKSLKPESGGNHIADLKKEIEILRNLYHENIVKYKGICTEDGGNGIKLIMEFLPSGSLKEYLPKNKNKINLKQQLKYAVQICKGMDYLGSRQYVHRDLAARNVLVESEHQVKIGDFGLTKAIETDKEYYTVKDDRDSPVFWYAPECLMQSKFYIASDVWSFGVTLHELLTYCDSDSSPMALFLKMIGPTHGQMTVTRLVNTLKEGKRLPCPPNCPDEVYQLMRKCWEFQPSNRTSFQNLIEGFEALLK
T2 sequence (P29597 whole entry): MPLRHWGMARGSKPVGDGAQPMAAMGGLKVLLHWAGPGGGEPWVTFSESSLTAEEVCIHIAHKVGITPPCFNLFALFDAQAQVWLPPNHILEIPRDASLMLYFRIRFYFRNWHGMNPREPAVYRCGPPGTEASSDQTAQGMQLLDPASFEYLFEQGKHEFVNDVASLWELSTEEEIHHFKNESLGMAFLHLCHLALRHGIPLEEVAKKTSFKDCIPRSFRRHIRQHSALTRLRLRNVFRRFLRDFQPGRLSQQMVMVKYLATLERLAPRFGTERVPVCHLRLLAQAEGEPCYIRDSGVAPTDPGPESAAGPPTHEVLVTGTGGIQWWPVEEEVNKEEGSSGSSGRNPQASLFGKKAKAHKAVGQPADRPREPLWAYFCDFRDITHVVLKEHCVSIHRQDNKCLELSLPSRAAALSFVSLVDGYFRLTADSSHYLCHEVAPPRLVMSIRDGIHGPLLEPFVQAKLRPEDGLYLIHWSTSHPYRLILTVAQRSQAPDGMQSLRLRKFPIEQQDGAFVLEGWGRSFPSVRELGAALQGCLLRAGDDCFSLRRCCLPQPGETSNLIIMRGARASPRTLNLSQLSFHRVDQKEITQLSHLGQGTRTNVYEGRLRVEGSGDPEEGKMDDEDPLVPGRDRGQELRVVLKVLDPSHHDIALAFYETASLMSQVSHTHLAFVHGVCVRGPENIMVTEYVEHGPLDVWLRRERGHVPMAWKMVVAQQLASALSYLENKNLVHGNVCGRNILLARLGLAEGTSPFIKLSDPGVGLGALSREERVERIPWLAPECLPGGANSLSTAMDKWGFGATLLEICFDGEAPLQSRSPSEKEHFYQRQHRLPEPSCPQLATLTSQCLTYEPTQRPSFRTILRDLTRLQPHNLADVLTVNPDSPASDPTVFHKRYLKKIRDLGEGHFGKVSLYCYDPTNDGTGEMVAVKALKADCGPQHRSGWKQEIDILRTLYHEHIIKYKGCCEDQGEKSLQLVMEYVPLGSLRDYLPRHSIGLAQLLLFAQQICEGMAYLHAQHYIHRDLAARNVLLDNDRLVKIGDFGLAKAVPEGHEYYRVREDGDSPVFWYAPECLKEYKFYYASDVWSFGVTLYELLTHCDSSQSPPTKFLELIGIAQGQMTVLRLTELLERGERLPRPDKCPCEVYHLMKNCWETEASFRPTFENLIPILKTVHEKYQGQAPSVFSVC
T3 sequence (O60674 whole entry): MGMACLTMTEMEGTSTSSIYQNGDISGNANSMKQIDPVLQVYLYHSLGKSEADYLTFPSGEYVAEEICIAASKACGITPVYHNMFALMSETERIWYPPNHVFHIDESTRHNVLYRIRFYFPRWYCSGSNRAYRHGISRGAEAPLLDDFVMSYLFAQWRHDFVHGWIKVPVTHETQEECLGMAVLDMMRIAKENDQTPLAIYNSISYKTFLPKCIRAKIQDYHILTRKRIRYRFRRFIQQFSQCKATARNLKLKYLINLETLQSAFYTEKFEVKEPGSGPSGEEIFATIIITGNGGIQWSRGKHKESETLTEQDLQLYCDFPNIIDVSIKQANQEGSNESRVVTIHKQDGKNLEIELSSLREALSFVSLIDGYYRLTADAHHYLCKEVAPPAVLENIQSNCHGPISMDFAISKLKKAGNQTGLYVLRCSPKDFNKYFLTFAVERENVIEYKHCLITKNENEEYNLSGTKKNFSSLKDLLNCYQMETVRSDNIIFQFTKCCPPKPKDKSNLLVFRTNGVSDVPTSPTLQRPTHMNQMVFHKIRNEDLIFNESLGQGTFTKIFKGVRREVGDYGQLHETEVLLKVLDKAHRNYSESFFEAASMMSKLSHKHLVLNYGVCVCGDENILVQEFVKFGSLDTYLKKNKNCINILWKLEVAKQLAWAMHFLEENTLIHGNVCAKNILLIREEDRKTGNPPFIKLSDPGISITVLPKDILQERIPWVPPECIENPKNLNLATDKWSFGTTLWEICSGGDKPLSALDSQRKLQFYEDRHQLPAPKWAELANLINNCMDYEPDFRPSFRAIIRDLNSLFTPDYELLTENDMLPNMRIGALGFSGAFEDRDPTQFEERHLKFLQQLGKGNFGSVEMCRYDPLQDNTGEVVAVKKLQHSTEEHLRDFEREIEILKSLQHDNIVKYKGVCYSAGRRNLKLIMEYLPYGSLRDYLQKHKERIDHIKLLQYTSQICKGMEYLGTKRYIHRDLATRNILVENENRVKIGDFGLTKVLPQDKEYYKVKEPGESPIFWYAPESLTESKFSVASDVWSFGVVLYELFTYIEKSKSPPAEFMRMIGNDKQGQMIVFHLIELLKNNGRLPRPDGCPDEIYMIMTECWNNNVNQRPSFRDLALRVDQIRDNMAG

| SMILES | IC50 (JAK1) | IC50 (TYK2) | Selectivity ratio over JAK2, Tyk2 (TYK2) | IC50 (JAK2) | IC50 (JAK3) | Selectivity ratio over JAK2, JAK1 (JAK1) | Selectivity ratio over JAK2, JAK3 (JAK3) |
| --- | --- | --- | --- | --- | --- | --- | --- |
| CCNC(=O)N1CCC[C@@H]1CNc1nc(Nc2cnn(C)c2)ncc1Cl [Example 88, (R)-2-(((5-chloro-2-((1-methyl-1H-pyrazol-4-yl)amino)pyrimidin-4-yl)amino)methyl)-N-ethylpyrrolidine-1-carboxamide] | 0.1 to 1 µM | < 0.1 µM | Tyk2 = 35 | 0.1 to 1 µM | 0.1 to 1 µM |  |  |
| C=CC(=O)N1CCCC[C@@H]1CNc1nc(Nc2cnn(C)c2)ncc1Cl [Example 41, (R)-1-(2-(((5-chloro-2-((1-methyl-1H-pyrazol-4-yl)amino)pyrimidin-4-yl)amino)methyl)piperidin-1-yl)prop-2-en-1-one] | 0.1 to 1 µM | 0.1 to 1 µM | Tyk2 = 6 | 0.1 to 1 µM | 0.1 to 1 µM |  |  |
| Cc1cnc(Nc2cnn(CC(F)F)c2)nc1NC[C@@H]1CCCN1C(=O)CCC#N [Example 125, (S)-4-(2-(((2-((1-(2,2-difluoroethyl)-1H-pyrazol-4-yl)amino)-5-methylpyrimidin-4-yl)amino)methyl)pyrrolidin-1-yl)-4-oxobutanenitrile] | < 0.1 µM | < 0.1 µM |  | 1 to 10 µM | 0.1 to 1 µM | JAK1 = 197 |  |
| CNC(=O)Cn1cc(Nc2ncc(Cl)c(NC[C@H]3CCCN3)n2)cn1 [Example 63, (R)-2-(4-(5-chloro-4-(pyrrolidin-2-ylmethylamino)pyrimidin-2-ylamino)-1H-pyrazol-1-yl)-N-methylacetamide] | 1 to 10 µM | 1 to 10 µM |  | > 10 µM | 1 to 10 µM |  |  |
| Cc1cnc(Nc2cnn(C)c2)nc1NC[C@H]1CCCN1CCS(C)(=O)=O [Example 107, (R)-5-methyl-N^2-(1-methyl-1H-pyrazol-4-yl)-N^4-((1-(2-(methylsulfonyl)ethyl)pyrrolidin-2-yl)methyl)pyrimidine-2,4-diamine] | < 0.1 µM | < 0.1 µM | Tyk2 = 67 | 0.1 to 1 µM | < 0.1 µM |  |  |
| Cn1cc(Nc2ncc(Cl)c(NC[C@H]3CCN(S(C)(=O)=O)C3)n2)cn1 [Example 24, (R)-5-chloro-N^2-(1-methyl-1H-pyrazol-4-yl)-N^4-((1-(methylsulfonyl)pyrrolidin-3-yl)methyl)pyrimidine-2,4-diamine] | < 0.1 µM | < 0.1 µM |  | 0.1 to 1 µM | 0.1 to 1 µM | JAK1 = 23 |  |
| CN(C)C(=O)Cn1cc(Nc2ncc(Cl)c(NC[C@@H]3CCCN3S(C)(=O)=O)n2)cn1 [Example 69, (S)-2-(4-(5-chloro-4-((1-(methylsulfonyl)pyrrolidin-2-yl)methylamino)pyrimidin-2-ylamino)-1H-pyrazol-1-yl)-N,N-dimethylacetamide] | < 0.1 µM | < 0.1 µM |  | 0.1 to 1 µM | < 0.1 µM |  | JAK3 = 44 |
| C=CC(=O)N1CCCC[C@H]1CNc1nc(Nc2cnn(CCO)c2)ncc1Cl [Example 35, (S)-1-(2-(((5-chloro-2-((1-(2-hydroxyethyl)-1H-pyrazol-4-yl)amino)pyrimidin-4-yl)amino)methyl)piperidin-1-yl)prop-2-en-1-one] | 0.1 to 1 µM | 1 to 10 µM |  | > 10 µM | 1 to 10 µM |  |  |
| CS(=O)(=O)N1CCCC[C@H]1CNc1nc(Nc2cnn(CCO)c2)ncc1Cl [Example 37, (S)-2-(4-((5-chloro-4-(((1-(methylsulfonyl)piperidin-2-yl)methyl)amino)pyrimidin-2-yl)amino)-1H-pyrazol-1-yl)ethanol] | < 0.1 µM | 0.1 to 1 µM |  | 1 to 10 µM | < 0.1 µM |  | JAK3 = 64 |
| CC(=O)N1CCCC[C@H]1CNc1nc(Nc2cnn(CCO)c2)ncc1Cl [Example 33, (S)-1-(2-(((5-chloro-2-((1-(2-hydroxyethyl)-1H-pyrazol-4-yl)amino)pyrimidin-4-yl)amino)methyl)piperidin-1-yl)ethanone] | 1 to 10 µM | 1 to 10 µM |  | > 10 µM | 0.1 to 1 µM | JAK1 = 20 |  |
| Cn1cc(Nc2ncc(Cl)c(NC[C@H]3CCN(CCC#N)C3)n2)cn1 [Example 57, (R)-3-(3-((5-chloro-2-(1-methyl-1H-pyrazol-4-ylamino)pyrimidin-4-ylamino)methyl)pyrrolidin-1-yl)propanenitrile] | 0.1 to 1 µM | 0.1 to 1 µM |  | 1 to 10 µM | < 0.1 µM | JAK1 = 15 |  |
| Cn1cc(Nc2ncc(Cl)c(NC[C@H]3CCCN3C(=O)CC#N)n2)cn1 [Example 52, (R)-3-(2-((5-chloro-2-(1-methyl-1H-pyrazol-4-ylamino)pyrimidin-4-ylamino)methyl)pyrrolidin-1-yl)-3-oxopropanenitrile] | < 0.1 µM | < 0.1 µM | Tyk2 = 30 | 0.1 to 1 µM | < 0.1 µM |  |  |
